Measurements published in patent publication US12589161B2, “PEGylated synthetic KL4 peptide, compositions and methods thereof” (THE UNIVERSITY OF HONG KONG, priority 2019, dated 2026).
Where two headings read alike, the source gives them in different places. Non-standard residues stand in square brackets, D forms with d. Residues, ends and D or L forms follow the SMILES beside them. PEG12 = NCCOCCOCCOCCOCCOCCOCCOCCOCCOCCOCCOCCOCCC(=O)O; PEG6 = NCCOCCOCCOCCOCCOCCOCCC(=O)O

How the values were obtained:
[1] = Circular dichroism, temperature ramping; type: physicochemical; details: 6 to 94 °C, 5 mM Tris-HCl buffer, 0.1 mg/mL
Protocol: KL4 and PEG6KL4 peptides were dissolved in 5 mM Tris-HCl buffer at a final concentration of 0.1 mg/mL in 0.1% (v/v) DMSO. PEG12KL4 and PEG24KL4 were dissolved in 5 mM Tris-HCl buffer at a final concentration of 0.1 mg/mL without DMSO. CD spectra were acquired on a Chirascan™ Spectrometer (Applied Photophysics, Leatherhead, UK). For temperature ramping experiment, far-UV CD spectra were obtained with the peptide solution incubated from 6° C. to 94° C. Spectra were recorded from 260 to 190 nm using a 0.5 mm path length and were processed using Chirascan software where a spectrum of the peptide free solution was subtracted and Savitzky-Gorlay smoothing applied.

A549 cells [2] = experiment: Cellular uptake study of mRNA (flow cytometry and confocal microscopy); type: cell-based, human; details: 10:1 ratio (w/w), cyanine-5 labelled mRNA, 4 h post-transfection, flow cytometry
Protocol: The cellular uptake of the mRNA was studied by flow cytometry and confocal microscopy. For the flow cytometry study, A549 cells were seeded in 24-well plates at a density of 0.5×10^5 cells per well one day before the experiment. The cells were transfected with naked mRNA, KL4/mRNA and PEG12KL4/mRNA complexes at 10:1 ratio (w/w) in OptiMEM I reduced serum medium containing 1 μg of cyanine-5 labelled EGFP mRNA per well. After 4 h of incubation, the cells were washed and trypsinized. Cells from three separate wells of the same treatment were combined and suspended in culture medium. The extracellular florescent signal was quenched with 0.04% (w/v) trypan blue solution. After 2 min, the cells were washed, resuspended in 300 μL of PBS and sieved with a sterile 40 μm cell strainer (BD Biosciences, CA, USA). The fluorescence intensity was analyzed by flow cytometry (BD FACSCantoII Analyzer, BD Biosciences, CA, USA). At least 1×10^4 single cells were analyzed for each sample. For the confocal study, A549 cells were seeded in a 35 mm Mattek glass bottom culture dish (Mattek Corp. Ashland, MA, USA) at a density of 1×10^5 cells per well one day before imaging. Naked mRNA, KL4/mRNA and PEG12KL4/mRNA complexes at 10:1 ratio (w/w) were prepared in Opti-MEM I reduced serum medium with 2 μg of cyanine-5 labelled mRNA per dish. […]

A549 cells [3] = experiment: Cellular uptake of siRNA by flow cytometry on A549 cells; type: cell-based, human; details: A549, 10:1 ratio, fluorescently labelled siRNA, 4 h
Protocol: Flow cytometry was used to investigate the cellular uptake of peptide/siRNA complexes. A549 cells and Calu-3 cells were seeded in six-well plates at a density of 2.5×10^5 cells and 4×10^5 cells per well, respectively, one day before the experiment. The cells were transfected with peptide/siRNA complexes at 10:1 ratio (w/w) containing fluorescently labelled siRNA (150 nM) in Opti-MEM I reduced serum medium. The transfection medium was removed after 4 h of incubation, and the cells were washed with PBS once. The cells were trypsinized by 0.25% (w/v) trypsin-EDTA and suspended in culture medium. The extracellular fluorescence signal was quenched with 0.04% (w/v) trypan blue solution. After 2 min of incubation, the cells were washed with PBS thrice. The cells were resuspended in 500 μL of PBS and sieved with a sterile 40 μm cell strainer (BD Biosciences, CA, USA). The fluorescence intensity was analyzed by flow cytometry with PE/PI laser (585/42 nm) (BD FACSCantoII Analyzer, BD Biosciences, CA, USA). At least 10,000 single cells were analyzed for each sample.

[4] = Charge ratio of peptide to siRNA at 10:1 weight ratio
Excerpt: This is partly because the uncharged PEG chains reduced the effective charge ratio between cationic KL4 and siRNA [77]. The charge ratios of KL4, PEG6KL4, PEG12KL4 and PEG24KL4 to siRNA at 10:1 weight ratio are 6.1 to 1, 5.5 to 1, 4.9 to 1 and 4.2 to 1, respectively. […] The molecular weight of the PEG used in this study, which is below 1,200 Da, is relatively low compared with others where PEG of 2,000 to 5,000 Da was often used. Therefore, PEGylated KL4 peptide/siRNA complexes remained to be positively charged, which is suitable for cellular entry. […] In addition, PEG also provides steric hindrance between the interaction of KL4 and siRNA that weakens the binding, promoting the release of siRNA from the complexes after the addition of heparin.

[5] = Solubility of peptides in water; type: physicochemical
A549 cells [6] = experiment: GAPDH siRNA transfection on A549 cells (Western blot); type: cell-based, human; details: for Comparison within the same peptide prepared at different peptide to siRNA ratios: A549, one-way ANOVA, Tukey, n.s. not significant, * p<0.05, ** p<0.01, *** p<0.001; for inhibition of GAPDH protein: A549, 25 nM siRNA, 10:1 ratio (w/w); for siRNA transfection efficiency among the four peptides at different amounts of siRNA: A549, 10:1 ratio, 6 to 100 nM siRNA
Protocol: A549 cells were seeded in 6-well plates at a density of 1.5×10^5 cells per well one day before transfection. The cells were transfected with peptide/siRNA complexes containing 50 pmol of GAPDH siRNA or negative control siRNA per well (50 nM). The complexes were prepared in OptiMEM I reduced serum medium at 10:1, 15:1 and 20:1 ratios (w/w). Lipofectamine 2000 was used as control. The complexes were added to the cells and incubated for 4 h at 5% CO2, 37° C. before being washed with PBS. The transfection medium was removed and replaced with serum supplemented cell culture medium. At 72 h post-transfection, the cells were washed and lysed with cell lysis buffer. Western blotting assay was performed to analyze the level of GAPDH protein. The GAPDH expression was analyzed by densitometry of Western Blots using Image J software. The remaining GAPDH expression was the density of the GAPDH band of positive control (normalized with beta-actin of the corresponding sample) divided by the GAPDH band of negative control (normalized with the beta actin band of the corresponding sample).
(§1) A549 cells, BEAS-2B and Calu-3 cells were seeded in six-well plates at a density of 1.6×10^5 cells per well, 2×10^5 cells per well and 3×10^5 cells per well, respectively, one to two days before transfection. The cells were transfected with peptide/siRNA complexes at 5:1 to 20:1 ratio (w/w) containing GAPDH siRNA or negative control siRNA (6 to 100 nM) in OptiMEM I reduced serum medium. Lipofectamine 2000 was used for comparison. After 5 h of incubation, the cells were washed and replaced with serum supplemented cell culture medium. At 72 h post-transfection, the cells were washed and lysed with cell lysis buffer. Western blotting assay was performed to analyze the level of GAPDH protein as previously described. The GAPDH expression was analyzed by densitometry of Western blots using ImageJ software (Version 1.52). The GAPDH expression was normalized with the expression of […]-actin of the corresponding sample. The remaining GAPDH expression was the normalized GAPDH expression of positive control divided by the normalized GAPDH expression of negative control.

Calu-3 cells = experiment: GAPDH siRNA transfection on Calu-3 cells (Western blot); type: cell-based, human; details: one-way ANOVA, Tukey, n.s. not significant, * p<0.05, ** p<0.01, *** p<0.001
Protocol: as §1

BEAS-2B cells [7] = experiment: GAPDH siRNA transfection on BEAS-2B cells (Western blot); type: cell-based, human; details: for siRNA transfection efficiency: 50 nM siRNA, 72 h; for Comparison within the same peptide prepared at different peptide to siRNA ratios: one-way ANOVA, Tukey, n.s. not significant, * p<0.05, ** p<0.01, *** p<0.001
Protocol: as §1

A549 cells [8] = experiment: Luciferase mRNA transfection in vitro on A549 cells; type: cell-based, human; details: 24 h post-transfection
Protocol: (§2) A549 cells and BEAS-2B cells were seeded in 24-well plates at a density of 0.5×10^5 and 1×10^5 cells per well, respectively, for overnight. The KL4/mRNA and PEG12KL4/mRNA complexes formed at 5:1 to 30:1 ratio (w/w) in OptiMEM I reduced serum medium were added to the cells at 0.5 or 1 μg mRNA per well. Naked mRNA and lipoplexes (Lipofectamine 2000/mRNA complexes) were used as controls. After 4 h of incubation, the transfection medium was replaced with serum supplemented cell culture medium. At 24 h post-transfection, the cells were washed and lysed with reporter cell lysis buffer. The luciferase expression was detected using the luciferase assay system according to the manufacturer's protocol. The luminescence was measured with luminometer (SpectraMax L Microplate Reader, Molecular devices, CA, USA) and the protein concentrations of the cell lysates were quantified by Bradford protein assay. The results were expressed as relative light unit (RLU) per mg of total protein. To study the transfection efficiency of PEG12KL4/mRNA in SD and SFD powder formulations, the powders were reconstituted before adding to the cells. The luciferase expression was examined at 24 h post-transfection as described above.

BEAS-2B cells [9] = experiment: Luciferase mRNA transfection in vitro on BEAS-2B cells; type: cell-based, human; details: 24 h post-transfection
Protocol: as §2

charge ratio of peptide to siRNA [4]	solubility ([5]; water)	solubility [5]	Compound	secondary structure at different temperatures (far-UV CD) [1]	percentage of cells with mRNA uptake (A549 cells [2])	percentage of cells with siRNA uptake (A549 cells [3])	Comparison within the same peptide prepared at different peptide to siRNA ratios (A549 cells [6])	Comparison within the same peptide prepared at different peptide to siRNA ratios (Calu-3 cells)	siRNA transfection efficiency (BEAS-2B cells [7])	Comparison within the same peptide prepared at different peptide to siRNA ratios (BEAS-2B cells [7])	inhibition of GAPDH protein (A549 cells [6]; 72 h)	siRNA transfection efficiency among the four peptides at different amounts of siRNA (A549 cells [6]; 72 h)	mRNA transfection efficiency compared with Lipofectamine 2000 (A549 cells [8])	mRNA transfection efficiency compared with Lipofectamine 2000 (BEAS-2B cells [9])	siRNA transfection compared with KL4 (A549 cells [6]; A549, 10:1, 15:1 and 20:1 ratios, 50 pmol siRNA, 72 h, n=1 (FIG. 13))
6.1 to 1	< 1000 µg/mL	–	CC(C)C[C@H](NC(=O)[C@H](CC(C)C)NC(=O)[C@H](CC(C)C)NC(=O)[C@H](CC(C)C)NC(=O)[C@H](CCCCN)NC(=O)[C@H](CC(C)C)NC(=O)[C@H](CC(C)C)NC(=O)[C@H](CC(C)C)NC(=O)[C@H](CC(C)C)NC(=O)[C@H](CCCCN)NC(=O)[C@H](CC(C)C)NC(=O)[C@H](CC(C)C)NC(=O)[C@H](CC(C)C)NC(=O)[C@H](CC(C)C)NC(=O)[C@H](CCCCN)NC(=O)[C@H](CC(C)C)NC(=O)[C@H](CC(C)C)NC(=O)[C@H](CC(C)C)NC(=O)[C@H](CC(C)C)NC(=O)[C@@H](N)CCCCN)C(=O)N[C@@H](CCCCN)C(N)=O [KL4, reference compound] (H-KLLLLKLLLLKLLLLKLLLLK-NH2; N-terminus assumed)	the alpha-helical structure gradually turned to a beta-sheet conformation	15%	less than 20%	n.s.	–	–	–	–	–	–	–	–
5.5 to 1	–	< 1000 µg/mL	CC(C)C[C@H](NC(=O)[C@H](CC(C)C)NC(=O)[C@H](CC(C)C)NC(=O)[C@H](CC(C)C)NC(=O)[C@H](CCCCN)NC(=O)[C@H](CC(C)C)NC(=O)[C@H](CC(C)C)NC(=O)[C@H](CC(C)C)NC(=O)[C@H](CC(C)C)NC(=O)[C@H](CCCCN)NC(=O)[C@H](CC(C)C)NC(=O)[C@H](CC(C)C)NC(=O)[C@H](CC(C)C)NC(=O)[C@H](CC(C)C)NC(=O)[C@H](CCCCN)NC(=O)[C@H](CC(C)C)NC(=O)[C@H](CC(C)C)NC(=O)[C@H](CC(C)C)NC(=O)[C@H](CC(C)C)NC(=O)[C@H](CCCCN)NC(=O)CCOCCOCCOCCOCCOCCOCCN)C(=O)N[C@@H](CCCCN)C(N)=O [PEG6KL4] (H-[PEG6]KLLLLKLLLLKLLLLKLLLLK-NH2; N-terminus assumed)	adopted an alpha-helical structure at all tested temperatures	–	–	n.s.	n.s.	significantly higher transfection efficiency compared with lipofectamine 2000	n.s.	80%	most effective in transfecting siRNA	–	–	–
4.9 to 1	–	> 2000 µg/mL	CC(C)C[C@H](NC(=O)[C@H](CC(C)C)NC(=O)[C@H](CC(C)C)NC(=O)[C@H](CC(C)C)NC(=O)[C@H](CCCCN)NC(=O)[C@H](CC(C)C)NC(=O)[C@H](CC(C)C)NC(=O)[C@H](CC(C)C)NC(=O)[C@H](CC(C)C)NC(=O)[C@H](CCCCN)NC(=O)[C@H](CC(C)C)NC(=O)[C@H](CC(C)C)NC(=O)[C@H](CC(C)C)NC(=O)[C@H](CC(C)C)NC(=O)[C@H](CCCCN)NC(=O)[C@H](CC(C)C)NC(=O)[C@H](CC(C)C)NC(=O)[C@H](CC(C)C)NC(=O)[C@H](CC(C)C)NC(=O)[C@H](CCCCN)NC(=O)CCOCCOCCOCCOCCOCCOCCOCCOCCOCCOCCOCCOCCN)C(=O)N[C@@H](CCCCN)C(N)=O [PEG12KL4] (H-[PEG12]KLLLLKLLLLKLLLLKLLLLK-NH2; N-terminus assumed)	more sensitive in response to temperature compared with the other peptides	Over 60%	–	n.s.	–	significantly higher transfection efficiency compared with lipofectamine 2000	n.s.	80%	most effective in transfecting siRNA	comparable to that of Lipofectamine 2000	comparable to that of Lipofectamine 2000	superior to KL4 in mediating siRNA transfection at all tested ratios
